Assay results from US20100168054A1, “Functionalized Beta 1,6 Glucosamine Disaccharides and Process for Their Preparation” (OM PHARMA, priority 2006, published 2010).
Values joined by “and” are separate entries in the source; they are usually repeats but may differ in a detail not shown here. Equal entries are not always repeated. Marks after values point to notes of the source that are not given here.

Legend:
Type in all cases: in vivo, BALB/c ByJ mice
[1] = test system: LACK-sensitized and challenged mice; experiment: LACK-induced asthma model: pulmonary cytokines
Description: (§1) An example in vivo of the biological activity of two representative compounds of the invention is presented here. Using a mouse model of allergic asthma previously published (described in Julia et al. Immunity. 2002 February; 16(2):271-83), we aimed to investigate whether i.p. administrations of the synthetic molecules OM-174-DP and OM-174-MP-PD would inhibit airway inflammation in LACK-sensitized and challenged mice. To this goal, mice were treated either all along asthma induction (prophylactic model) or therapeutically (i.e. three times after animals have been sensitized to the allergen, the protein LACK). As read-outs, eosinophils were enumerated in bronchoalveolar lavages (BAL), and the well known markers of allergic asthma, namely the Th2 cytokines IL-4, IL-5, and IL-13 were quantified from the lungs. Moreover the level of plasmatic IgE was also reported.
(§2) OM-174-DP (i.p.)-treated LACK-sensitized and challenged mice (6 mice) Treatment and Schedule with Test or Control Article Experiment started at day 0. On days 0, 2, 3, 4, 7, 9, 10 11, and 12, mice of groups C, and D were treated i.p. with synthetic OM-174-DP (compound 1b) and OM-174-MP-PD (compound 19) respectively at the dose of 1 mg/Kg (20 μg per mouse). Mice of groups E were treated therapeutically i.p. on days 15, 17 and 19 at the dose of 1 mg/Kg (20 μg per mouse).
(§3) On day 1 and day 8, mice were sensitized i.p. with LACK/Alum. From day 16 to day 20, all the groups except group A mice were challenged with aerosols of a solution of LACK (0.15%). Group A received a saline solution (NaCl 0.9%) (group A) for 40 minutes instead.
To analyze pulmonary cytokine contents, lungs were harvested and left lungs were used to prepare protein extracts. 400 μl were recovered for each left lung. Cytokines (IL-4 and IL-13 in a first series of analyses, and then IL-5 and IFN-γ) were measured by multiplex analysis using FACSArray. The results, normalized for the protein content, are presented in pg/ml.

[2] = test system: LACK-sensitized and challenged mice; experiment: LACK-induced asthma model: eosinophils in bronchoalveolar lavages; conditions: for Eosino × 10^6, Mean ± SEM / Eosino × 10^6, individual mice: BAL; for Eosino × 10^6, individual mice: 1 mg/kg
Description: as §1, §2, §3
For all the animals, Broncho-alveolar lavages (BAL) were performed. Two days after the last aerosol challenge, mice were bled and a canula was inserted into their trachea. Lungs were washed 3 times with 1 ml of warmed PBS. Cells were washed with PBS, and red blood cells were lysed using a red blood cell lysis buffer. Cells were further washed in PBS and counted. For differential BAL cell counts, cytospin preparations were made and stained with Wright/Giemsa. At least 400 cells were scored for each slide, and the numbers of lymphocytes, neutrophils, eosinophils, and macrophages/DC/pneumocytes (scored as other mononuclear cells) were determined by microscopic examination. Only eosinophilia is reported here.

[3] = test system: LACK-sensitized and challenged mice; experiment: LACK-induced asthma model: LACK-specific IgE in sera; conditions: therapeutic
Description: as §1, §2, §3
To analyze specific IgE contents, mice of groups A, B, and G were bled by heart puncture two days after the last aerosol, and sera were prepared. LACK-specific IgE were measured by ELISA.

[4] = prophylactic, i.p. 1 mg/Kg, 1 mg/kg
[5] = prophylactic, i.p. 1 mg/Kg on days 0, 2, 3, 4, 7, 9, 10, 11, 12
[6] = therapeutic, i.p. 1 mg/Kg on days 15, 17, 19
[7] = therapeutic, i.p. 1 mg/Kg on days 15, 17, 19, 1 mg/kg

Compound | fold decrease of IL-4 in lungs compared to group B ([1]; prophylactic) [fold] | fold reduction of IL-13 compared to asthmatic mice ([1]; prophylactic) [fold] | Mean IL13 ([1]; prophylactic, i.p. 1 mg/Kg) | Mean IL-4 ([1]; prophylactic, i.p. 1 mg/Kg) | IL13 in lungs, individual mice [1, 4] | IL-4 in lungs, individual mice [1, 4] | Eosino × 10^6, Mean ± SEM [2, 5] | Eosino × 10^6, individual mice [2, 5] | times less BAL eosinophilia compared to positive asthmatic group (B) ([2]; prophylactic) | other results
CCCCCCCCCCCC(=O)O[C@H](CCCCCCCCCCC)CC(=O)N[C@H]1[C@H](OC[C@H]2O[C@H](OCC(O)CO)[C@H](NC(=O)C[C@H](O)CCCCCCCCCCC)[C@@H](O)[C@@H]2O)O[C@H](CO)[C@@H](OP(=O)(O)O)[C@@H]1O (stereo partly drawn) [compound 19, 2,3-Dihydroxypropyl-2-Deoxy-6-O-[2-deoxy-4-O-(dihydroxyphosphoryl)-2-[(R)-3-dodecanoyloxytetradecanoylamino]-β-D-glucopyranosyl]-2-[(R)-3-hydroxytetradecanoylamino]-α-D-glucopyranoside] | 4 | 3 | 16.62* pg/ml | 2.09** pg/ml | 12.08 pg/mL and 17.1 pg/mL and 8.59 pg/mL and 30.6 pg/mL and 16.14 pg/mL and 15.21 pg/mL | 1.01 pg/mL and 1.47 pg/mL and 0.91 pg/mL and 5.68 pg/mL and 1.79 pg/mL and 1.66 pg/mL | 100411 ± 80738 × 10^6 | 33286 × 10^6 and 64010 × 10^6 and 47018 × 10^6 and 252294 × 10^6 and 82555 × 10^6 and 123305 × 10^6 | about 8 times | –
CCCCCCCCCCCC(=O)O[C@H](CCCCCCCCCCC)CC(=O)NC1C(OCC2OC(OP(=O)(O)O)C(NC(=O)C[C@H](O)CCCCCCCCCCC)C(O)C2O)OC(CO)C(OP(=O)(O)O)C1O (stereo partly drawn) [compound 1b, 2-Deoxy-6-O-[2-deoxy-4-O-(dihydroxyphosphoryl)-2-[(R)-3-dodecanoyloxytetradecanoylamino]-β-D-glucopyranosyl]-2-[(R)-3-hydroxytetradecanoylamino]-α-D-glucopyranosyl dihydrogenophosphate] | 6 | 4 | 13.40* pg/ml | 1.50** pg/ml | 8.39 pg/mL and 25.39 pg/mL and 8.2 pg/mL and 24.29 pg/mL and 12.52 pg/mL and 1.59 pg/mL | 1.1 pg/mL and 3.33 pg/mL and 0.71 pg/mL and 2.43 pg/mL and 1.23 pg/mL and 0.17 pg/mL | 109781 ± 139453 × 10^6 | 75359 × 10^6 and 385612 × 10^6 and 33412 × 10^6 and 54158 × 10^6 and 105352 × 10^6 and 4792 × 10^6 | about 8 times | fold reduction in IL-4 compared to group B ([1]; therapeutic): 4 fold; fold reduction in IL-13 compared to group B ([1]; therapeutic): 3 fold; fold reduction of IL-5 compared to untreated mice ([1]; therapeutic): 2.8 fold; reduction of IFN-γ levels compared to group B (in words) ([1]; therapeutic): reduced twofold; Mean IFN-γ [1, 6]: 1.38* pg/ml; Mean IL13 [1, 6]: 17.90* pg/ml; Mean IL-4 [1, 6]: 2.33** pg/ml; Mean IL-5 [1, 6]: 6.00** pg/ml; IFN-γ in lungs, individual mice [1, 7]: 1.62 pg/mL and 0.88 pg/mL and 0.94 pg/mL and 2.2 pg/mL and 0.81 pg/mL and 1.8 pg/mL; IL13 in lungs, individual mice [1, 7]: 20.35 pg/mL and 5.43 pg/mL and 9.93 pg/mL and 23.68 pg/mL and 21.99 pg/mL and 26.02 pg/mL; IL-4 in lungs, individual mice [1, 7]: 2.5 pg/ml and 1 pg/ml and 1.58 pg/ml and 3.48 pg/ml (2×) and 1.94 pg/ml; IL-5 in lungs, individual mice [1, 7]: 7.41 pg/mL and 1.06 pg/mL and 2.15 pg/mL and 9.23 pg/mL and 5.81 pg/mL and 10.33 pg/mL; Mean IgE ([3]; sera, i.p. 1 mg/Kg on days 15, 17, 19): 224.56* ng/ml; LACK-specific IgE, individual mice ([3]; sera, i.p. 1 mg/Kg on days 15, 17, 19, 1 mg/kg): 188 ng/mL and 159 ng/mL and 94 ng/mL and 382 ng/mL and 395 ng/mL and 129 ng/mL; fold less LACK-specific IgE compared to untreated LACK challenged mice [3]: 2.6 fold; Eosino × 10^6, Mean ± SEM [2, 6]: 13923 ± 7362 × 10^6; Eosino × 10^6, individual mice [2, 6]: 16744 × 10^6 and 3802 × 10^6 and 7411 × 10^6 and 21739 × 10^6 and 12500 × 10^6 and 21343 × 10^6; factor of decrease of eosinophil count compared to group B ([2]; therapeutic, three times): 64
